US12077503B2, “Substituted cyclic amides and their use as herbicides” (FMC CORPORATION, priority 2015, dated 2024)

Tests used:
Format in all cases: in vivo
[1] = tested on: giant foxtail (Setaria faberii); experiment: Test A postemergence; conditions: postemergence, 0 to 100 scale (0 no effect, 100 complete control)
Summary of the method: (§1)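 Each rating is a visual injury score from 0 to 100 given about 10 d after treatment, judged against untreated controls kept alongside in the greenhouse. In loam soil–sand blend, seeds got a preemergence directed soil spray, while postemergence plants were 2 to 10 cm tall at spraying.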

[2] = tested on: pigweed (Amaranthus retroflexus); experiment: Test A postemergence; conditions: postemergence, 0 to 100 scale (0 no effect, 100 complete control)
Summary of the method: as §1

[3] = tested on: barnyardgrass (Echinochloa crus-galli); experiment: Test A postemergence
Summary of the method: as §1

[4] = tested on: ragweed (common ragweed, Ambrosia elatior); experiment: Test A postemergence; conditions: postemergence, 0 to 100 scale (0 no effect, 100 complete control)
Summary of the method: as §1

[5] = tested on: ryegrass, Italian (Italian ryegrass, Lolium multiflorum); experiment: Test A postemergence; conditions: postemergence, 0 to 100 scale (0 no effect, 100 complete control)
Summary of the method: as §1

[6] = tested on: Kochia (Kochia scoparia); experiment: Test A postemergence; conditions: postemergence, 0 to 100 scale (0 no effect, 100 complete control)
Summary of the method: as §1

[7] = tested on: blackgrass (Alopecurus myosuroides); experiment: Test A postemergence
Summary of the method: as §1

[8] = tested on: Galium (catchweed bedstraw, Galium aparine); experiment: Test A postemergence; conditions: postemergence, 0 to 100 scale (0 no effect, 100 complete control)
Summary of the method: as §1

[9] = tested on: corn (Zea mays); experiment: Test A postemergence
Summary of the method: as §1

[10] = tested on: wheat (Triticum aestivum); experiment: Test A postemergence; conditions: postemergence, 0 to 100 scale (0 no effect, 100 complete control)
Summary of the method: as §1

[11] = tested on: giant foxtail (Setaria faberii); experiment: Test A preemergence
Summary of the method: as §1

[12] = tested on: pigweed (Amaranthus retroflexus); experiment: Test A preemergence
[13] = tested on: barnyardgrass (Echinochloa crus-galli); experiment: Test A preemergence
Summary of the method: as §1

[14] = tested on: ragweed (common ragweed, Ambrosia elatior); experiment: Test A preemergence
Summary of the method: as §1

[15] = tested on: ryegrass, Italian (Italian ryegrass, Lolium multiflorum); experiment: Test A preemergence
Summary of the method: as §1

[16] = tested on: Kochia (Kochia scoparia); experiment: Test A preemergence
Summary of the method: as §1

[17] = tested on: barnyardgrass (Echinochloa crus-galli); experiment: Test B flooded paddy test; conditions: Flood, 500 g ai/ha; 0 to 100 scale where 0 is no effect and 100 is complete control; 13 to 15 d
Summary of the method: (§2)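 Rating scale 0–100 (visual, vs untreated controls) after a 13–15 d greenhouse period; application to the flood layer, 3 cm above soil and maintained; plants at 2-leaf stage when treated.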

[18] = tested on: rice (Oryra sativa); experiment: Test B flooded paddy test; conditions: Flood, 500 g ai/ha; 0 to 100 scale where 0 is no effect and 100 is complete control; 13 to 15 d
Summary of the method: as §2

[19] = tested on: sedge, umbrella (small-flower umbrella sedge, Cyperus difformis); experiment: Test B flooded paddy test; conditions: Flood, 500 g ai/ha; 0 to 100 scale where 0 is no effect and 100 is complete control; 13 to 15 d
Summary of the method: as §2

[20] = tested on: ducksalad (Heteranthera limosa); experiment: Test B flooded paddy test; conditions: Flood, 500 g ai/ha; 0 to 100 scale where 0 is no effect and 100 is complete control; 13 to 15 d
Summary of the method: as §2

[21] = tested on: ragweed (common ragweed, Ambrosia elatior); experiment: Test C preemergence; conditions: for Plant response rating (scale of 0 to 100), Ragweed: 31 g ai/ha, 0 is no effect, 100 is complete control; for Plant response rating, Ragweed: scale 0 to 100, 0 no effect, 100 complete control
Summary of the method: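 After treatment with surfactant-containing formulations, either preemergence to seeds in loam-sand soil or postemergence to potted seedlings at 2–18 cm, plants were kept 13–15 d in a greenhouse. Observers then compared them with controls and assigned ratings, 0 signifying no effect and 100 complete control.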

[22] = 125 g ai/ha, visual rating after approx. 10 d
[23] = 500 g ai/ha, visual injury, approx. 10 d
[24] = 125 g ai/ha, postemergence, visual rating after approx. 10 d, 0 to 100 scale (0 no effect, 100 complete control)
[25] = Postemergence, 500 g ai/ha, 0 to 100 scale where 0 is no effect and 100 is complete control
[26] = 125 g ai/ha, Preemergence, visual injury after approximately 10 d, 0 to 100 scale where 0 is no effect and 100 is complete control
[27] = 500 g ai/ha, preemergence, 0 to 100 scale, 0 = no effect, 100 = complete control
[28] = 125 g ai/ha, visual injury after approximately 10 d
[29] = 125 g ai/ha, postemergence, visual injury after approximately 10 d, 0 to 100 scale (0 no effect, 100 complete control)
[30] = 500 g ai/ha, postemergence, visual injury, 0 to 100 scale (0 no effect, 100 complete control), approx. 10 d
[31] = 125 g ai/ha, preemergence, visual rating after approx. 10 d, 0 to 100 scale where 0 is no effect and 100 is complete control

Row | Structure (SMILES) | Plant response rating, Foxtail, Giant [1, 23] | Plant response rating, Pigweed [2, 23] | Plant response rating, Ragweed [4, 23] | Plant response rating, Ryegrass, Italian [5, 23] | Plant response rating, Kochia [6, 23] | Plant response rating, Galium [8, 23] | Plant response rating, Wheat [10, 23] | Plant response rating, Foxtail, Giant [11, 27] | Plant response rating, Pigweed [12, 27] | Plant response rating, Barnyardgrass [13, 27] | Plant response rating, Ragweed [14, 27] | Plant response rating, Ryegrass, Italian [15, 27] | Plant response rating, Kochia [16, 27] | Plant response rating, Barnyardgrass [17] | Plant response rating, Rice [18] | Plant response rating, Sedge, Umbrella [19] | Plant response rating, Ducksalad [20] | Plant response rating (scale of 0 to 100), Ragweed [21] | Plant response rating, Ragweed ([21]; 62 g ai/ha) | Plant response rating, Ragweed ([21]; 125 g ai/ha) | also measured
1 | O=C1NCC(c2ccc3c(c2)OC(F)(F)O3)C1C(=O)Nc1cccc(F)c1F (centres unmarked) [Compound 635] | 90 | 80 | 40 | 30 | 80 | 60 | 40 | 90 | 70 | 90 | 50 | 30 | 60 | 60 | 10 | 0 | 100 | 40 | 70 | 80 | Plant response rating, Foxtail, Giant [1, 22]: 90; Plant response rating, Pigweed [2, 22]: 60; Plant response rating, Barnyardgrass [3, 24]: 80; Plant response rating, Barnyardgrass [3, 25]: 90; Plant response rating, Ragweed [4, 22]: 0; Plant response rating, Ryegrass, Italian [5, 22]: 0; Plant response rating, Kochia [6, 22]: 60; Plant response rating, Blackgrass [7, 24]: 40; Plant response rating, Blackgrass [7, 25]: 70; Plant response rating, Galium [8, 22]: 40; Plant response rating, Corn [9, 24]: 40; Plant response rating, Corn [9, 25]: 70; Plant response rating, Wheat [10, 22]: 20; Plant response rating, Foxtail, Giant [11, 26]: 90; Plant response rating, Pigweed [12, 26]: 60; Plant response rating, Barnyardgrass [13, 26]: 90; Plant response rating, Ragweed [14, 26]: 40; Plant response rating, Ryegrass, Italian [15, 26]: 20; Plant response rating, Kochia [16, 26]: 60; Plant response rating, Ragweed ([21]; 250 g ai/ha): 80
2 | O=C1NCC(c2ccc(I)cc2)C1C(=O)Nc1cccc(F)c1F (racemic) [Compound 700] | 90 | 30 | 30 | 40 | 60 | 60 | 60 | 90 | 60 | 90 | 60 | 30 | 70 | 85 | 0 | 0 | 100 | 10 | 50 | 75 | Plant response rating, Foxtail, Giant [1, 28]: 70; Plant response rating, Pigweed [2, 28]: 0; Plant response rating, Barnyardgrass [3, 29]: 70; Plant response rating, Barnyardgrass [3, 30]: 70; Plant response rating, Ragweed [4, 28]: 20; Plant response rating, Ryegrass, Italian [5, 28]: 30; Plant response rating, Kochia [6, 28]: 30; Plant response rating, Blackgrass [7, 29]: 0; Plant response rating, Blackgrass [7, 30]: 50; Plant response rating, Galium [8, 28]: 40; Plant response rating, Corn [9, 29]: 0; Plant response rating, Corn [9, 30]: 70; Plant response rating, Wheat [10, 28]: 0; Plant response rating, Foxtail, Giant [11, 31]: 90; Plant response rating, Pigweed [12, 31]: 40; Plant response rating, Barnyardgrass [13, 31]: 90; Plant response rating, Ragweed [14, 31]: 0; Plant response rating, Ryegrass, Italian [15, 31]: 0; Plant response rating, Kochia [16, 31]: 30; Plant response rating, Ragweed ([21]; 250 g ai/ha): 75
